Assay results reported in PMC7038953 (2020).

Tests used:
Test in all cases: fluorescence light-up, plate reader
Conditions in all cases: 100 mM K+ (KCl); 20 mM Tris-HCl, pH 7.8; 5 µM dye, 5 µM oligonucleotide; not an affinity constant
[1] = system: TBA31 (DNA, G4) CACTGGTAGGTTGGTGTGGTTGGGGCCAGTG
[2] = system: TBA15 (DNA, G4) GGTTGGTGTGGTTGG
[3] = system: ON31 (RNA, G4) CACUGGUAGGUUGGUGUGGUUGGGGCCAGUG
[4] = system: Tel23a (DNA, G4) AGGGTTAGGGTTAGGGTTAGGGT
[5] = system: TBA25 (DNA, G4) TGGTAGGTTGGTGTGGTTGGGGCCA
[6] = system: ON15 (RNA, G4) GGUUGGUGUGGUUGG
[7] = system: ON1+2 (ON1-ON2 duplex) (DNA, duplex) ATAAAATAAAAAATTACACTGG/CCAGTGTAATTTTTTATTTTAT
[8] = system: TBA63 (DNA, G4) ATAAAATAAAAAATTACACTGGTAGGTTGGTGTGGTTGGGGCCAGTGTAATTTTTTATTTTAT

Row | SMILES | Fluorescence Intensity Enhancement [1] [fold] | Fluorescence Intensity Enhancement [2] [fold] | Fluorescence Intensity Enhancement [3] [fold] | Fluorescence Intensity Enhancement [4] [fold] | Fluorescence Intensity Enhancement [5] [fold] | Fluorescence Intensity Enhancement [6] [fold] | also measured
1 | CN1C(=O)/C(=C/c2ccc(O)cc2)N=C1/C=C/c1ccc(Br)cc1 | 7.4 ± 0.08 | 2.0 ± 0.08 | – | – | – | – | –
2 | CC(=O)C1=N/C(=C\c2c[nH]c3ccccc23)C(=O)N1C | 20.5 ± 0.22 | 2.9 ± 0.11 | 19.0 ± 0.25 | 7.1 ± 0.16 | 31.7 ± 0.40 | 7.1 ± 0.09 | –
3 | Cc1ccc(/C(O)=C/C2=NC(=C\c3ccc(O)cc3)/C(=O)N2C)cc1 | 18.8 ± 0.28 | 2.1 ± 0.12 | – | 12.4 ± 0.19 | 19.1 ± 0.21 | – | Fluorescence Intensity Enhancement [7]: 4.0 ± 0.09 fold; Fluorescence Intensity Enhancement [8]: 12.1 ± 0.15 fold
4 | CN1C(=O)/C(=C/c2ccc(O)cc2)N=C1C(=O)c1ccccc1 | – | – | – | – | 8.7 ± 0.17 | 6.1 ± 0.10 | –
5 | COc1cc(/C=C2N=C(/C=C/c3ccncc3)N(C)C\2=O)cc(OC)c1O | 16.5 ± 0.18 | 3.3 ± 0.13 | 6.8 ± 0.13 | 6.2 ± 0.12 | – | – | –
6 | CN1C(=O)/C(=C/c2ccc(O)cc2)N=C1/C=C/c1ccc(C(F)(F)F)cc1 | – | – | 2.5 ± 0.03 | – | – | – | –
7 | CN1C(=O)/C(=C/c2ccc(O)cc2)N=C1/C=C/c1ccccc1F | – | – | – | – | 23.0 ± 0.25 | – | –
8 | CN1C(=O)/C(=C/c2ccc(O)cc2)N=C1/C=C/c1ccc(N(C)C)cc1 | 12.3 ± 0.13 | – | – | – | 20.6 ± 0.29 | – | –
9 | CN1/C(=C/c2cc[n+](C)cc2)Sc2ccccc21 | – | – | – | – | – | – | binding [3]: yes; binding [6]: yes
10 | CN1C(=O)/C(=C/c2ccccc2)N=C1Nc1ccccc1 | – | – | 11.0 ± 0.13 | – | – | 4.7 ± 0.11 | –
